Reference: US20260097091A1, “ADMINISTRATION OF GLUTATHIONE TRISULFIDE TO AMELIORATE PERIPHERAL NEUROPATHY” (The General Hospital Corporation, priority 2022, published 2026)

Columns and labels:
[1] = test system: mouse model of PIPN; experiment: hot plate test of thermal hyperalgesia in mouse model of PIPN; type: in vivo, mice (C57BL/6J)
Description: All animal protocols were approved by the Massachusetts General Hospital Institutional Animal Care and Use Committee. Animals were cared for in accordance with the guidelines established by the NIH and the International Association for the Study of Pain [16]. Male C57BL/6J mice (6-7 weeks old) were purchased from the Jackson Laboratory (Bar Harbor, ME, USA). The mice were housed in a 12-hour shift light-control environment from 7 am to […] with ad libitum access to food and water in our animal facility until the time of experiments.
Paclitaxel (Sigma-Aldrich) was dissolved with ethanol and cremophor (1:1) and diluted with normal saline (1:4). Peripheral neuropathy was induced in mice by intraperitoneal (i.p.) administration of 4 mg/kg paclitaxel every other day for a total of 4 injections (cumulative dose of 16 mg/kg), according to a previously described protocol. A stable, crystallized form of GSSSG was produced and provided by Kyowa Hakko Bio CO., LTD. […] The dose of GSSSG was determined based on pilot studies. […]
To assess hyperalgesia, the heat threshold was determined by the hot plate test. […] The test was repeated 2 times after 5 minutes interval by a blinded examiner, and the average time was calculated. The ratio of change from the baseline was calculated from the difference of the latency response time from the baseline divided by the baseline time. […]

[2] = test system: MDA-MB-231 human breast cancer cells; experiment: MDA-MB-231 cell viability by LDH Cytotoxicity Detection assay; type: cell-based; details: 24 hours incubation
Experimental: To examine whether co-administration of GSSSG affects anti-tumor effects of paclitaxel, we conducted experiments using MDA-MB-231, a human breast cancer cell line (HTB-26, ATCC). Cells were cultured in the medium of 90% RPMI1640 (Corning, Cat No. 10-040-CV), 10% FBS, and 1% penicillin/streptomycin. After being seeded into a 96-well plate at the density of 20,000/well and cultured overnight, they were exposed to different concentrations of paclitaxel (0.125 μM, 0.25 μM, 0.5 μM, 1 μM, and 2 μM) and incubated for 24 hours. Cell viability was evaluated by LDH Cytotoxicity Detection Kit (Roche, Cat No. 11644793001). Briefly, a plate was centrifuged at 250×g for 10 minutes. Cells were washed with PBS and incubated with 100 μl of 1% Triton X-100 at 37° C. for 30 minutes. After mixing with assay enzyme for 30 minutes at 25° C., absorbance was measured at wavelength 492 nm to determine cell viability. Inhibitory effects of paclitaxel were calculated by half-maximal inhibitory concentration (IC50). We utilized the IC50 of paclitaxel obtained with LDH assay to examine the anti-tumor effect of paclitaxel and co-administration of GSSSG using the trypan blue exclusion assay. […] MDA-MB-231 cells were seeded 5.6×10,000/well in a 6-well plate and incubated overnight. […] After being stripped by 0.25% trypsin, live cells were counted under 0.04% trypan blue. Five wells were evaluated per group.

[3] = test system: sciatic nerve; experiment: transmission electron microscopy of sciatic nerve (unmyelinated neurons, mitochondria); type: in vivo, mice (C57BL/6J); details: for median area of mitochondria in unmyelinated neuron: sciatic nerve at 4 weeks, control 0.036
Experimental: Paclitaxel (Sigma-Aldrich) was dissolved with ethanol and cremophor (1:1) and diluted with normal saline (1:4). Peripheral neuropathy was induced in mice by intraperitoneal (i.p.) administration of 4 mg/kg paclitaxel every other day for a total of 4 injections (cumulative dose of 16 mg/kg), according to a previously described protocol. A stable, crystallized form of GSSSG was produced and provided by Kyowa Hakko Bio CO., LTD. GSSSG was pulverized and mixed in 0.5% methylcellulose. To evaluate the therapeutic effects of GSSSG in a model of PIPN, mice were randomly divided into three groups of 6. Mice were treated with: 1) paclitaxel alone; 2) paclitaxel and GSSSG; 3) or vehicle alone (control). Mice in groups 1 and 2 received paclitaxel as described above, while mice in the control group received the same volume of vehicle. The first dose of GSSSG was given within 1 hour after the first PTX injection. Treatment was administered as oral gavage for 28 days with GSSSG at 50 mg/kg/day (group 2) or 0.5% methylcellulose (groups 1 and 3). The dose of GSSSG was determined based on pilot studies. To determine the effect of GSSSG on the development of PIPN, behavioral tests to assess allodynia and hyperalgesia were conducted on all mice on days-1 (baseline), 7, 14, 21, and 28 after paclitaxel administration. Behavioral tests were performed by an investigator who was blinded to the treatment groups, as described in the next section. To evaluate unmyelinated neurons and mitochondria, we examined neurons in sciatic nerve by a transmission electron microscope. Resin-embedded nerve blocks using the same method above were sectioned at 50 nm by an ultramicrotome. Sections were examined with an FEI Morgagni transmission electron microscope. Low (×2200) and high (×11000) magnification of images were captured with an AMT 2K charge-coupled device camera (Advanced Microscopy Techniques, Woburn, MA, USA). Unmyelinated neurons were quantified in 9 low magnified images per group (3 mice per group). The percentage of unmyelinated neurons was calculated by dividing unmyelinated neurons by the total number of neurons. The cross-sectional area of mitochondria (μm^2) in unmyelinated neurons was quantified in 18 to 20 high magnified images per group (3 mice per group). In total, 80 to 100 mitochondrion per group were evaluated. Quantification was conducted by a blinded examiner, and the images were evaluated by a pathologist (A S-R) blinded to the identity of samples.

[4] = paclitaxel alone, 4 weeks, vs control mice

## CC(=O)O[C@H]1C(=O)[C@@]2(C)[C@H]([C@H](OC(=O)c3ccccc3)[C@]3(O)C[C@H](OC(=O)[C@H](O)[C@@H](NC(=O)c4ccccc4)c4ccccc4)C(C)=C1C3(C)C)[C@]1(OC(C)=O)CO[C@@H]1C[C@@H]2O [paclitaxel, Paclitaxel, reference compound]
[1]; paclitaxel 4 mg/kg i.p. every other day, 4 injections, 4 weeks, vs control
  thermal hyperalgesia (hot plate test): induced thermal hyperalgesia
[2]
  IC50: 1660 nM
[3]; [4]
  cross-sectional area of mitochondria in unmyelinated sciatic neurons: significantly larger than those in control mice
  ratio of unmyelinated neurons to total neurons in sciatic nerve: tended to decrease unmyelinated neurons compared to control mice
[3]; paclitaxel alone
  median area of mitochondria in unmyelinated neuron: 0.057 μm^2

## N[C@@H](CCC(=O)N[C@@H](CSSSC[C@H](NC(=O)CC[C@H](N)C(=O)O)C(=O)NCC(=O)O)C(=O)NCC(=O)O)C(=O)O [GSSSG, glutathione trisulfide]
[1]; GSSSG 50 mg/kg/day oral in paclitaxel-treated mice
  threshold for thermal hyperalgesia (hot plate test): not altered
[3]; paclitaxel and GSSSG 50 mg/kg/day oral, 4 weeks
  mitochondrial swelling in axons of unmyelinated neurons: Prevented Mitochondrial Swelling
[3]; paclitaxel and GSSSG 50 mg/kg/day oral, 4 weeks, vs paclitaxel alone
  ratio of unmyelinated neurons to total neurons in sciatic nerve: larger ratio of unmyelinated neurons
[3]; paclitaxel with GSSSG 50 mg/kg/day oral
  median area of mitochondria in unmyelinated neuron: 0.041 μm^2
